Measured values reported in US20230374015A1, “INHIBITORS OF FIBROBLAST GROWTH FACTOR RECEPTOR KINASES” (Kinnate Biopharma Inc., priority 2020, published 2023).

Target: FGFR2 (Homo sapiens, UniProt P21802)
Assay: FGFR2 Kinase Protocol - Condition 2 (Reaction Biology HotSpot radiometric kinase assay, no preincubation)
Assay type: biochemical
Details: poly[Glu:Tyr] (4:1) 0.2 mg/ml, ATP 100 microM, 2 hr room temperature
Experimental: Example 2: FGFR2 Kinase Protocol—Condition 2
The Reaction Biology HotSpot assay platform (http://www.reactionbiology.com) was used to measure kinase/inhibitor interactions as described previously (Anastassiadis et al., 2011). In brief, for each reaction, kinase and substrate were mixed in a buffer containing 20 mM HEPES (pH 7.5), 10 mM MgCl2, 1 mM EGTA, 0.02% Brij35, 0.02 mg/mL BSA, 0.1 mM Na3VO4, 2 mM DTT, and 1% DMSO. All compounds were in powder form and freshly solubilized in DMSO for assays. Compounds were then added to each reaction mixture via acoustic dispense using an ECHO 550 nanoliter dispenser. For Human FGFR2 wildtype testing, a peptide substrate, poly[Glu:Tyr] (4:1) was used to promote the reaction at a concentration of 0.2 mg/ml. For Human FGFR2 (V564F) testing, a peptide substrate, poly[Glu:Tyr] (4:1) was used to promote the reaction at a concentration of 0.2 mg/ml. ATP concentration for all assays was maintained at 100 micromolar. Compounds were tested in 10-dose IC50 mode with a 3-fold serial dilution. Compounds were added to plates and ATP was added directly to the wells. ATP (Sigma-Aldrich, St. Louis, MO 63178) and [g33P] ATP (specific activity 10 microCi/microliter) purchased at PerkinElmer (Boston, MA, 02118 Cat #BLU 003H250UC) were added at a final total concentration of 100 microM to each well with no preincubation. Reactions were carried out at room temperature for 2 hr and spotted onto P81 ion exchange cellulose chromatography paper (Reaction Biology). Filter paper was washed in 0.75% phosphoric acid to remove unincorporated ATP. The percent remaining kinase activity relative to a vehicle-containing (DMSO) kinase reaction was calculated for each kinase/inhibitor pair. IC50 values were calculated using Dotmatics Knowledge Solutions Studies curve fitting (Dotmatics, Bishops Stortford, UK, CM23).

Sequence of FGFR2 (P21802 22-821): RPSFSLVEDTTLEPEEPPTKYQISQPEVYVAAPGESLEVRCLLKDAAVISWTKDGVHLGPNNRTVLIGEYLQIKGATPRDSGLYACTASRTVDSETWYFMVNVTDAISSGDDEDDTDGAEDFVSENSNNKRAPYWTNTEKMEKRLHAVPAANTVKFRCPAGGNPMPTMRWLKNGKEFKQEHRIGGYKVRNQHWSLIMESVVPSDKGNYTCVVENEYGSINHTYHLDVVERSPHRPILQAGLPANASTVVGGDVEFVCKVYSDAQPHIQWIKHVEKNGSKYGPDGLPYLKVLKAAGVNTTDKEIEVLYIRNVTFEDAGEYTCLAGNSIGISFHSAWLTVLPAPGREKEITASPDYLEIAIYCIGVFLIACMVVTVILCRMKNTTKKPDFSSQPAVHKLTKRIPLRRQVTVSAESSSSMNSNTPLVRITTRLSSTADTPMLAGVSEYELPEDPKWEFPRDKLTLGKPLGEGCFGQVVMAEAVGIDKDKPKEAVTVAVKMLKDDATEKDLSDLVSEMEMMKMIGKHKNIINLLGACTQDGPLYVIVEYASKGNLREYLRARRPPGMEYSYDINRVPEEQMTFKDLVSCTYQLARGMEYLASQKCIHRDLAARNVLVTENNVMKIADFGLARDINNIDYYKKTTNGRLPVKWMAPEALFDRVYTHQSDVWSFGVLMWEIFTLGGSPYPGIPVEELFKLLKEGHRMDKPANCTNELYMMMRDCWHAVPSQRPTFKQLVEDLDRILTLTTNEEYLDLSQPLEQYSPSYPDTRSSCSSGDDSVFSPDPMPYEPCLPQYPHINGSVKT

Row | IC50 | Structure (SMILES)
1 | ≤ 100 nM | [2H]C([2H])([2H])OC[C@H]1C[C@H](n2nc(C#Cc3cc4ncn(CC)c4cc3Cl)c3c(N)ncnc32)CN1C(=O)C=C [Example 135, 1-[(2R,4S)-4-[4-Amino-3-[2-(6-chloro-1-ethyl-1,3-benzodiazol-5-yl)ethynyl]pyrazolo[3,4-d]pyrimidin-1-yl]-2-[(2H3)methoxymethyl]pyrrolidin-1-yl]prop-2-en-1-one]
2 | ≤ 100 nM | C=CC(=O)N1C[C@@H](n2nc(C#Cc3cc4ncn(C)c4cc3F)c3c(N)nccc32)C[C@@H]1CF [Example 185, 1-[(2R,4S)-4-{4-Amino-3-[2-(6-fluoro-1-methyl-1,3-benzodiazol-5-yl)ethynyl]pyrazolo[4,3-c]pyridin-1-yl}-2-(fluoromethyl)pyrrolidin-1-yl]prop-2-en-1-one]
3 | ≤ 100 nM | C=CC(=O)N1C[C@@H](n2nc(C#Cc3cc4ncn(C5CC5)c4cc3Cl)c3c(N)ncnc32)C[C@@H]1COC [Example 126, 1-[(2R,4S)-4-[4-Amino-3-[2-(6-chloro-1-cyclopropyl-1,3-benzodiazol-5-yl)ethynyl]pyrazolo[3,4-d]pyrimidin-1-yl]-2-(methoxymethyl)pyrrolidin-1-yl]prop-2-en-1-one]
4 | ≤ 100 nM | C=CC(=O)N1C[C@@H](n2nc(C#Cc3cc4ncn(CC)c4cc3F)c3c(N)ncnc32)C[C@@H]1C [Example 163, 1-((2S,4S)-4-(4-amino-3-((1-ethyl-6-fluoro-1H-benzo[d]imidazol-5-yl)ethynyl)-1H-pyrazolo[3,4-d]pyrimidin-1-yl)-2-methylpyrrolidin-1-yl)prop-2-en-1-one]
5 | ≤ 100 nM | C=CC(=O)N1C[C@@H](n2nc(C#Cc3cc4nc(C)n(C(F)F)c4cc3Cl)c3c(N)ncnc32)C[C@@H]1COC [Example 129, 1-[(2R,4S)-4-(4-Amino-3-{2-[6-chloro-1-(difluoromethyl)-2-methyl-1,3-benzodiazol-5-yl]ethynyl}pyrazolo[3,4-d]pyrimidin-1-yl)-2-(methoxymethyl)pyrrolidin-1-yl]prop-2-en-1-one]
6 | ≤ 100 nM | C=CC(=O)N1C[C@@H](n2nc(C#Cc3cc4ncn(C5CC5)c4cc3F)c3c(N)ncnc32)C[C@@H]1COC(F)F [Example 196, 1-((2R,4S)-4-(4-Amino-3-((1-cyclopropyl-6-fluoro-1H-benzo[d]imidazol-5-yl)ethynyl)-1H-pyrazolo[3,4-d]pyrimidin-1-yl)-2-((difluoromethoxy)methyl)pyrrolidin-1-yl)prop-2-en-1-one]
7 | ≤ 100 nM | C=CC(=O)N1CC[C@H](n2nc(C#Cc3ccc4c(c3)ncn4C3CC3)c3c(N)ncnc32)C1 [Example 193, 1-[(3S)-3-{4-Amino-3-[2-(1-cyclopropyl-1,3-benzodiazol-5-yl)ethynyl]pyrazolo[3,4-d]pyrimidin-1-yl}pyrrolidin-1-yl]prop-2-en-1-one]
8 | ≤ 100 nM | C=CC(=O)N1C[C@@H](n2nc(C#Cc3cc4ncn(C)c4c(F)c3Cl)c3c(N)ncnc32)C[C@@H]1COC [Example 121, 1-[(2R,4S)-4-[4-Amino-3-[2-(6-chloro-7-fluoro-1-methyl-1,3-benzodiazol-5-yl)ethynyl]pyrazolo[3,4-d]pyrimidin-1-yl]-2-(methoxymethyl)pyrrolidin-1-yl]prop-2-en-1-one]
9 | ≤ 100 nM | C=CC(=O)N1C[C@@H](n2nc(C#Cc3cc4ncn(C)c4cc3F)c3c(N)ncnc32)C[C@@H]1CF [Example 184, 1-[(2R,4S)-4-{4-Amino-3-[2-(6-fluoro-1-methyl-1,3-benzodiazol-5-yl)ethynyl]pyrazolo[3,4-d]pyrimidin-1-yl}-2-(fluoromethyl)pyrrolidin-1-yl]prop-2-en-1-one]
10 | ≤ 100 nM | C=CC(=O)N1C[C@@H](c2nc(C#Cc3cc4ncn(C5CC5)c4cc3F)c3c(N)ncnn23)C[C@@H]1COC [Example 199, 1-[(2R,4S)-4-{4-Amino-5-[2-(1-cyclopropyl-6-fluoro-1,3-benzodiazol-5-yl)ethynyl]imidazo[4,3-f][1,2,4]triazin-7-yl}-2-(methoxymethyl)pyrrolidin-1-yl]prop-2-en-1-one]
11 | ≤ 100 nM | C=CC(=O)N1C[C@@H](n2nc(C#Cc3cc4ncn(C)c4cc3Cl)c3c(N)ncnc32)C[C@@H]1C [Example 164, 1-((2S,4S)-4-(4-amino-3-((6-chloro-1-methyl-1H-benzo[d]imidazol-5-yl)ethynyl)-1H-pyrazolo[3,4-d]pyrimidin-1-yl)-2-methylpyrrolidin-1-yl)prop-2-en-1-one]

Further lines, the molecule ahead of its results:

Row | Structure (SMILES) | IC50
12 | C=CC(=O)N1C[C@@H](n2nc(C#Cc3cc4ncn(C5CC5)c4cc3F)c3c(N)ncnc32)C[C@@H]1COC [Example 108, 1-[(2R,4S)-4-[4-Amino-3-[2-(1-cyclopropyl-6-fluoro-1,3-benzodiazol-5-yl)ethynyl]pyrazolo[3,4-d]pyrimidin-1-yl]-2-(methoxymethyl)pyrrolidin-1-yl]prop-2-en-1-one] | ≤ 100 nM
13 | C=CC(=O)N1C[C@@H](n2nc(C#Cc3c(F)cc4[nH]c(C)nc4c3F)c3c(N)ncnc32)C[C@@H]1COC [Example 94, 1-[(2R,4S)-4-[4-Amino-3-[2-(4,6-difluoro-2-methyl-1H-1,3-benzodiazol-5-yl)ethynyl]pyrazolo[3,4-d]pyrimidin-1-yl]-2-(methoxymethyl)pyrrolidin-1-yl]prop-2-en-1-one] | ≤ 100 nM
14 | C=CC(=O)N1C[C@@H](n2nc(C#Cc3c(F)cc4c(ncn4C)c3F)c3c(N)ncnc32)C[C@@H]1COC(F)(F)F [Example 54, 1-[(2R,4S)-4-[4-Amino-3-[2-(4,6-difluoro-1-methyl-1,3-benzodiazol-5-yl)ethynyl]pyrazolo[3,4-d]pyrimidin-1-yl]-2-[(trifluoromethoxy)methyl]pyrrolidin-1-yl]prop-2-en-1-one] | ≤ 100 nM
15 | C=CC(=O)N1C[C@@H](n2nc(C#Cc3cc4ncn(CC)c4cc3Cl)c3c(N)nccc32)C[C@@H]1COC [Example 88, 1-[(2R,4S)-4-[4-Amino-3-[2-(6-chloro-1-ethyl-1,3-benzodiazol-5-yl)ethynyl]pyrazolo[4,3-c]pyridin-1-yl]-2-(methoxymethyl)pyrrolidin-1-yl]prop-2-en-1-one] | ≤ 100 nM
16 | C=CC(=O)N1C[C@@H](n2nc(C#Cc3c(F)cc4c(ncn4CC)c3F)c3c(N)nccc32)C[C@@H]1COC [Example 86, 1-[(2R,4S)-4-[4-Amino-3-[2-(1-ethyl-4,6-difluoro-1,3-benzodiazol-5-yl)ethynyl]pyrazolo[4,3-c]pyridin-1-yl]-2-(methoxymethyl)pyrrolidin-1-yl]prop-2-en-1-one] | ≤ 100 nM
17 | C=CC(=O)N1C[C@@H](n2cc(C#Cc3cc4ncn(C(F)F)c4cc3F)c3c(N)ncnc32)C[C@@H]1COC [Example 84, 1-[(2R,4S)-4-(4-Amino-5-[2-[1-(difluoromethyl)-6-fluoro-1,3-benzodiazol-5-yl]ethynyl]pyrrolo[2,3-d]pyrimidin-7-yl)-2-(methoxymethyl)pyrrolidin-1-yl]prop-2-en-1-one] | ≤ 100 nM
18 | C=CC(=O)N1C[C@@H](n2nc(C#Cc3cc4ncn(CC)c4cc3F)c3c(N)ncnc32)C[C@@H]1COC [Example 77, 1-[(2R,4S)-4-[4-Amino-3-[2-(1-ethyl-6-fluoro-1,3-benzodiazol-5-yl)ethynyl]pyrazolo[3,4-d]pyrimidin-1-yl]-2-(methoxymethyl)pyrrolidin-1-yl]prop-2-en-1-one] | ≤ 100 nM
19 | C=CC(=O)N1C[C@@H](n2nc(C#Cc3ccc4c(cnn4C)c3)c3c(N)nccc32)C[C@@H]1COC [Example 35, 1-[(2R,4S)-4-[4-amino-3-[2-(1-methylindazol-5-yl)ethynyl]pyrazolo[4,3-c]pyridin-1-yl]-2-(methoxymethyl)pyrrolidin-1-yl]prop-2-en-1-one] | 100 to 1000 nM
20 | C=CC(=O)N1C[C@@H](n2nc(C#Cc3ccc4c(c3)nc(C)n4C)c3c(N)nccc32)C[C@@H]1CC#N [Example 43, 2-((2R,4S)-1-acryloyl-4-(4-amino-3-((1,2-dimethyl-1H-benzo[d]imidazol-5-yl)ethynyl)-1H-pyrazolo[4,3-c]pyridin-1-yl)pyrrolidin-2-yl)acetonitrile] | ≤ 100 nM
21 | C=CC(=O)N1C[C@@H](n2nc(C#Cc3ccc4c(c3)ncn4C)c3c(N)ncnc32)C[C@@H]1COC(F)(F)F [Example 56, 1-((2R,4S)-4-(4-Amino-3-((1-methyl-1H-benzo[d]imidazol-5-yl)ethynyl)-1H-pyrazolo[3,4-d]pyrimidin-1-yl)-2-((trifluoromethoxy)methyl)pyrrolidin-1-yl)prop-2-en-1-one] | ≤ 100 nM
22 | C=CC(=O)N1C[C@@H](n2cc(C#Cc3cc4ncn(CC)c4cc3Cl)c3c(N)ncnc32)C[C@@H]1COC [Example 93, 1-[(2R,4S)-4-[4-Amino-5-[2-(6-chloro-1-ethyl-1,3-benzodiazol-5-yl)ethynyl]pyrrolo[2,3-d]pyrimidin-7-yl]-2-(methoxymethyl)pyrrolidin-1-yl]prop-2-en-1-one] | ≤ 100 nM
